Measurements published in ChEMBL document CHEMBL1857833, “Screening and optimization of specific chemical series against human African Trypanosomiasis (HAT)”.
Values after ≈ are worked out from the molar mass of the structure shown.

What was measured:
[1] = DNDI: Cytotoxicity against L929 mouse fibroblasts, 72 hour.; format: toxicity, cell-based; conditions: mouse, L929 mouse fibroblasts
Trypanosoma brucei = experiment: DNDI: Inhibition of Human African Trypanosomiasis, SBRI 427, in vitro; format: functional, organism-based; conditions: Trypanosoma brucei, SBRI 427; read-out: IC50

| SMILES | IC50 at 72 h [1] | IC50 (Trypanosoma brucei) |
| --- | --- | --- |
| CCCCCNCc1coc(-c2ccc(CCCC)cc2)n1 | 1.64 µg/mL (≈ 5.46 µM) | 0.51 µg/mL (≈ 1.7 µM) |
| CCCCc1ccc(-c2nc(CNC3CCCC3)co2)cc1 | 2.52 µg/mL (≈ 8.44 µM) | 0.83 µg/mL (≈ 2.78 µM) |
| Cc1cc(Oc2ccc(/C(=N/O)N3CCCC3C)cn2)cc(C(C)C)c1 (stereo not given) |  | > 5 µg/mL |
| Cc1ccc(/C(=N/O)NC2CCCC2)c(Oc2ccc3oc4ccccc4c3c2)n1 |  | 0.67 µg/mL (≈ 1.67 µM) |
| CCCCc1ccc(-c2nc(CNC(C)CCC)co2)cc1 (stereo not given) | 2.03 µg/mL (≈ 6.76 µM) | 0.61 µg/mL (≈ 2.03 µM) |
| COCC(C)N/C(=N\O)c1ccc(Oc2ccc3ccccc3c2)nc1 (stereo not given) |  | > 5 µg/mL |
| CCCCc1ccc(-c2nc(CNC3CC3)co2)cc1 | 7.55 µg/mL (≈ 27.9 µM) | 3.05 µg/mL (≈ 11.3 µM) |
| O/N=C(\NC1CC1)c1cccnc1Oc1ccccc1F |  | 4.25 µg/mL (≈ 14.8 µM) |
| O/N=C(\NCC1CC1)c1ccc(Oc2cccc3c2CCCC3)nc1 |  | 0.53 µg/mL (≈ 1.57 µM) |
| C[C@H]1C(NCc2coc(-c3cccs3)n2)C[C@@H]2C[C@H]1C2(C)C (stereo not given in full) |  | 2.27 µg/mL (≈ 7.17 µM) |
| CCC(CC)N/C(=N\O)c1cccnc1Oc1ccccc1OC |  | 0.59 µg/mL (≈ 1.79 µM) |
| O/N=C(\NCC1CCCCC1)c1cccnc1Oc1ccc(-n2cncn2)cc1 |  | 0.59 µg/mL (≈ 1.5 µM) |
| Cc1ccc(Oc2ccccc2/C(=N/O)NC2CCCCC2)cc1 | 4.06 µg/mL (≈ 12.5 µM) | 0.27 µg/mL (≈ 0.832 µM) |
| O/N=C(\NC1CCC1)c1ccc(Oc2ccc3ccccc3c2)nc1 |  | > 5 µg/mL |
| Cc1cc(C)cc(CN/C(=N\O)c2cccnc2OCc2ccccc2F)c1 |  | 1.96 µg/mL (≈ 5.17 µM) |
| CCCCc1ccc(-c2nc(C(=O)OCC)co2)cc1 | > 10 µg/mL | > 5 µg/mL |
| CCCCCCCCOC(=O)Cc1coc(-c2ccc(CCCC)cc2)n1 | > 10 µg/mL | > 5 µg/mL |
| Cc1cc(C)cc(Oc2ccc(/C(=N/O)NC3CCC(C)CC3)cn2)c1 (stereo not given) |  | 2.93 µg/mL (≈ 8.29 µM) |
| CCCCc1ccc(-c2nc(CNC(C)c3ccccc3)co2)cc1 (stereo not given) | 3.33 µg/mL (≈ 9.96 µM) | 0.87 µg/mL (≈ 2.6 µM) |
| CCCCc1ccc(-c2nc(C)c(C(=O)OC)o2)cc1 | > 10 µg/mL | > 5 µg/mL |
| O/N=C(\NC1CC1)c1ccc(Oc2ccc3oc4ccccc4c3c2)nc1 |  | 36.6 µg/mL (≈ 102 µM) |
| CCC(CC)N/C(=N\O)c1ccc(Oc2cccc3c2CCCC3)nc1 |  | 1.26 µg/mL (≈ 3.56 µM) |
| COc1ccc(S(=O)(=O)NC2CCCCC2)cc1 | > 10 µg/mL | > 5 µg/mL |
| COc1ccc(S(=O)(=O)NC2CCCCC2)cc1OC | > 10 µg/mL | > 5 µg/mL |
| O/N=C(\NC1CCC1)c1ccc(Oc2c(F)c(F)cc(F)c2F)nc1 |  | 2.58 µg/mL (≈ 7.26 µM) |
| CCCCc1ccc(-c2nc(C)c(C(C)=O)o2)cc1 | > 10 µg/mL | > 5 µg/mL |

| SMILES | IC50 at 72 h [1] | IC50 (Trypanosoma brucei) |
| --- | --- | --- |
| C[C@@H]1[C@H]2C[C@@H](C[C@H]1NCc1coc(-c3ccc(OC4CCCCC4)cc3)n1)C2(C)C | 1.59 µg/mL (≈ 3.89 µM) | 0.57 µg/mL (≈ 1.4 µM) |
| CCC(C)C(NCC(C)C)c1nc(Cc2ccccc2)c(N2CCCCC2)o1 (stereo not given) | > 10 µg/mL | > 5 µg/mL |
| CCCCc1ccc(-c2nc(CN[C@H](C)c3ccccc3)co2)cc1 | 3.32 µg/mL (≈ 9.93 µM) | 2.98 µg/mL (≈ 8.91 µM) |
| CCOc1ccccc1-c1nc(CNC(C)C(C)(C)C)co1 (stereo not given) |  | 2.12 µg/mL (≈ 7.01 µM) |
| COc1ccccc1Oc1ncccc1/C(=N/O)NCC1CC1 |  | 0.35 µg/mL (≈ 1.12 µM) |
| CSc1ccccc1Oc1ncccc1/C(=N/O)NC1CCCC1 |  | 2.99 µg/mL (≈ 8.71 µM) |
| CC1CCc2ccccc2N1/C(=N\O)c1cccnc1Oc1ccc(-n2cncn2)cc1 (stereo not given) |  | 0.73 µg/mL (≈ 1.71 µM) |
| CCCCc1ccc(-c2nc(CNCc3ccccc3)co2)cc1 | 3.29 µg/mL (≈ 10.3 µM) | 1.32 µg/mL (≈ 4.12 µM) |
| CCCCc1ccc(-c2nc(-c3ccccc3)c(-c3ccccc3)o2)cc1 | > 10 µg/mL | > 5 µg/mL |
| CCCCc1ccc(-c2nc(-c3ccccc3)c(C)o2)cc1 | > 10 µg/mL | > 5 µg/mL |
| Cc1ccc(Oc2ccc(/C(=N/O)NC3CCCC3)cn2)c(C)c1 |  | 21.8 µg/mL (≈ 66.9 µM) |
| CCCCc1ccc(-c2nc(CNCc3ccc(C)cc3)co2)cc1 | 2.63 µg/mL (≈ 7.86 µM) | 3.05 µg/mL (≈ 9.12 µM) |
| CCCCc1ccc(-c2nc(-c3ccc(OC)cc3)co2)cc1 | > 10 µg/mL | > 5 µg/mL |
| CCCCc1ccc(-c2nc(-c3ccc4ccccc4c3)co2)cc1 | > 10 µg/mL | > 5 µg/mL |
| CSc1ccc(Oc2nc(C)ccc2/C(=N/O)NC2CCCC2)cc1C |  | 0.96 µg/mL (≈ 2.58 µM) |
| O/N=C(/c1cccnc1Oc1ccc(F)cc1Cl)N1CCCc2ccccc21 |  | 0.54 µg/mL (≈ 1.36 µM) |
| CCCCc1ccc(-c2nc(CNCc3ccc(Cl)cc3)co2)cc1 | 7.38 µg/mL (≈ 20.8 µM) | > 5 µg/mL |
| COc1ccc(/C(=N/O)Nc2cccc(C(C)(C)C)c2)cc1 | 3.91 µg/mL (≈ 13.1 µM) |  |
| CCC(C)(C)N/C(=N\O)c1ccc(Oc2ccc3oc4ccccc4c3c2)nc1 |  | 1.6 µg/mL (≈ 4.11 µM) |
| CCC(C)(C)N/C(=N\O)c1ccc(Oc2cc(C)cc(C)c2)nc1 |  | 2.36 µg/mL (≈ 7.21 µM) |
| O/N=C(\NCC1CC1)c1cccnc1Oc1ccc(F)cc1 |  | 1.23 µg/mL (≈ 4.08 µM) |
| CCC(C)C(NCc1ccccc1OC)c1nc(Cc2ccccc2)c(N2CCCCC2)o1 (stereo not given) | > 10 µg/mL | > 5 µg/mL |
| Cc1ccc(/C(=N/O)NC2CCCCC2)c(Oc2ccc3ccccc3c2)n1 |  | 0.37 µg/mL (≈ 0.985 µM) |
| CCOc1ccccc1-c1nc(CNC(C)C2CCCCC2)co1 (stereo not given) |  | 1.94 µg/mL (≈ 5.91 µM) |
| Cc1cc(C)cc(Oc2nc(C)ccc2/C(=N/O)N2c3ccccc3CCC2C)c1 (stereo not given) |  | 1.6 µg/mL (≈ 3.98 µM) |
| CC1CCCN1/C(=N\O)c1ccc(Oc2ccc3ccccc3c2)nc1 (stereo not given) |  | 2.32 µg/mL (≈ 6.68 µM) |
